Results published in ChEMBL document CHEMBL4325920, “Discovery of Clinical Candidate BMS-823778 as an Inhibitor of Human 11β-Hydroxysteroid Dehydrogenase Type 1 (11β-HSD-1)” (ACS Med Chem Lett, 2018).

Experiments:
[1] = target: T1, Nuclear receptor subfamily 1 group I member 2 (Homo sapiens, UniProt O75469); test: Activation of PXR (unknown origin); assay type: ADME
T1 sequence (O75469 whole entry): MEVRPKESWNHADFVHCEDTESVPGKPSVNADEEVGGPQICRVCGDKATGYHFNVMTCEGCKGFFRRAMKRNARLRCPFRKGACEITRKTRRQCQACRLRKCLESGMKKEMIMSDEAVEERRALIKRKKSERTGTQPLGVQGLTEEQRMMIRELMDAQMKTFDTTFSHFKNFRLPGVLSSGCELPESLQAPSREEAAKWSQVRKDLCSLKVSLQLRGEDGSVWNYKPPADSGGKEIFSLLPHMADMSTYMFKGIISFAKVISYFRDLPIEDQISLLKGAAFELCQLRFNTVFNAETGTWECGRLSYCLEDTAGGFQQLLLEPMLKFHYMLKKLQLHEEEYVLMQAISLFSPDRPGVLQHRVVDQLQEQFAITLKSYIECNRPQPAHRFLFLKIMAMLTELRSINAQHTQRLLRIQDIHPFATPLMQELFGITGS

[2] = target: 11-beta-hydroxysteroid dehydrogenase 1 (Mus musculus, UniProt P50172); test: Inhibition of recombinant mouse 11beta-HSD1 expressed in HEK293 cell microsomes using [3H]cortisone as substrate after 4 hrs by homogeneous immuno-radiometric scintillation proximity assay
Sequence of 11-beta-hydroxysteroid dehydrogenase 1 (P50172 whole entry): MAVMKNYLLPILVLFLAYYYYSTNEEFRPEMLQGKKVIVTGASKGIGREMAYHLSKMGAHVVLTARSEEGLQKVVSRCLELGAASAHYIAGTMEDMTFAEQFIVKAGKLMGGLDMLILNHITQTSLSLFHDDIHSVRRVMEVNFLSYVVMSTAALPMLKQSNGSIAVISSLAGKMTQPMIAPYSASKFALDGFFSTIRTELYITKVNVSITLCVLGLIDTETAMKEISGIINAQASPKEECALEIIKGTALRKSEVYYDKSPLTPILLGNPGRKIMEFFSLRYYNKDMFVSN

Compound	EC50 [1]	IC50 [2]
OC(c1cccn2c(C3(c4ccc(Cl)cc4)CC3)nnc12)C1CC1 (stereo not given)	48 µM	8.06 µM
CC(C)(C(=O)O)c1cccn2c(C3(c4ccc(Cl)cc4)CC3)nnc12	> 50 µM	> 10 µM
OCC(O)c1cccn2c(C3(c4ccc(Cl)cc4)CC3)nnc12 (stereo not given)	> 50 µM	> 10 µM

The next compounds have a lower EC50 [1] than those just listed; values first:

EC50 [1]	IC50 [2]	Compound
1.3 µM	1.15 µM	CC(C)(CCO)c1cccn2c(C3(c4ccc(Cl)cc4)CC3)nnc12
25 µM	5.7 µM	OCCCc1cccn2c(C3(c4ccc(Cl)cc4)CC3)nnc12
